Columns and labels:
K-562 = assay: Proliferation inhibition, CellTiter-Glo, K-562; format: cell-based, human; details: Homo sapiens, K562, 96 h; K-562 cells, IC50 (4 days), CellTiter-Glo; read-out: K-562 IC50
In short: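 About 10,000 cells per well in RPMI-1640 with 10% FBS. Compounds added 2 h after seeding at eight concentrations in duplicate (0.2% DMSO as 100% proliferation), then incubated ~96 h at 37° C, 5% CO2. ATP measured by CellTiter-Glo luminescence; IC50 from four-parameter logistic fit.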

FLT3-ITD = molecular target: T1, FLT3-ITD (Homo sapiens, UniProt P36888, DUP595-601); assay: FLT3-ITD Lance Ultra TR-FRET kinase assay; format: biochemical
T1 construct: purchased Signalchem F-12-12CG-10
T1 sequence (P36888 with tags, fused parts or gaps DUP595-601 limits assumed): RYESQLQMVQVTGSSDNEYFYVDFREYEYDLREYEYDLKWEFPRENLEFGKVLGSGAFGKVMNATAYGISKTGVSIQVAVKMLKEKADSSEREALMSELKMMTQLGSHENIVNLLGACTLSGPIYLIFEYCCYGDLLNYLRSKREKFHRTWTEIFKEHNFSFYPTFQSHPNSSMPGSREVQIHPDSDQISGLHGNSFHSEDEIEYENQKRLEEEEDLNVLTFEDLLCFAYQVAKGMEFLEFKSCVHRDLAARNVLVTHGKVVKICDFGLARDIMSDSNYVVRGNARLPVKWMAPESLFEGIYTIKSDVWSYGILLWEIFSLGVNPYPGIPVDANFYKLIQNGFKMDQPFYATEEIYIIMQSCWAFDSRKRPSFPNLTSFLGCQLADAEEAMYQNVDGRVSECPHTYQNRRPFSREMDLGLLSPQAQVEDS
In short: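 Lance Ultra TR-FRET with 50 nM ULight-JAK-1 (Tyr1023) peptide, Eu-anti-phosphotyrosine (PT66) detection, in HEPES pH 7.5 buffer at 23° C, 30 min enzyme/compound preincubation. WT: 0.5 nM enzyme, 100 μM ATP, 30 min; ITD: 0.0625 nM, 50 μM ATP, 60 min. IC50 by four-parameter fit of 11-point 3× dilutions.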

CCc1nc(Nc2cccc([C@@H](C)CNC(=O)CN(C)C(=O)/C=C/CN3CCC3)c2)c(C(N)=O)nc1CC [Compound 508, (R, E)-3-((3-(1-(2-(4-(azetidin-1-yl)-N-methylbut-2-enamido)acetamido)propan-2-yl)phenyl)amino)-5,6-diethylpyrazine-2-carboxamide]
IC50 (K-562): > 500 nM | IC50 (FLT3-ITD): 0.501 to 1 nM

CCc1nc(C(N)=O)c(Nc2cccc([C@@H](C)CNC(=O)CN(C)C(=O)/C=C/CN3CCC3)c2)nc1N(C)CC [Compound 518, (R,E)-3-((3-(1-(2-(4-(azetidin-1-yl)-N-methylbut-2-enamido)acetamido)propan-2-yl)phenyl)amino)-6-ethyl-5-(ethyl(methyl)amino)pyrazine-2-carboxamide]
IC50 (K-562): > 500 nM | IC50 (FLT3-ITD): 0.101 to 0.2 nM

CCc1nc(C(N)=O)c(Nc2ccnc(CCNC(=O)[C@H](C)N(C)C(=O)/C=C/CN(C)C)c2)nc1N(C)C(C)C [Compound 605, (S, E)-3-((2-(2-(2-(4-(dimethylamino)-N-methylbut-2-enamido)propanamido)ethyl)pyridin-4-yl)amino)-6-ethyl-5-(isopropyl (methyl)amino) pyrazine-2-carboxamide]
IC50 (K-562): > 500 nM | IC50 (FLT3-ITD): 0.201 to 0.5 nM

CCc1nc(C(N)=O)c(Nc2ccnc(CCNC(=O)[C@H](C)N(C)C(=O)/C=C/CN(C)C)c2)nc1C1CC1 [Compound 310, (S,E)-5-cyclopropyl-3-((2-(2-(2-(4-(dimethylamino)-N-methylbut-2-enamido)propanamido)ethyl)pyridin-4-yl)amino)-6-ethylpyrazine-2-carboxamide]
IC50 (K-562): > 500 nM | IC50 (FLT3-ITD): 0.501 to 1 nM

CCc1nc(C(N)=O)c(Nc2cccc(CCNC(=O)[C@H](C)N(C)C(=O)/C=C/CN(C)C)c2)nc1NC(C)C [Compound 205, (S,E)-3-((3-(2-(2-(4-(dimethylamino)-N-methylbut-2-enamido)propanamido)ethyl)phenyl)amino)-6-ethyl-5-(isopropylamino)pyrazine-2-carboxamide]
IC50 (K-562): > 500 nM | IC50 (FLT3-ITD): 0.101 to 0.2 nM

CCCc1nc(Nc2cccc([C@@H](C)CNC(=O)CN(C)C(=O)/C=C/CN3CCC3)c2)c(C(N)=O)nc1CC [Compound 507, (R,E)-3-((3-(1-(2-(4-(azetidin-1-yl)-N-methylbut-2-enamido)acetamido)propan-2-yl)phenyl)amino)-6-ethyl-5-propylpyrazine-2-carboxamide]
IC50 (K-562): > 500 nM | IC50 (FLT3-ITD): 0.201 to 0.5 nM

CCc1nc(C(N)=O)c(Nc2cccc(CCNC(=O)[C@H](C)N(C)C(=O)/C=C/CN(C)C)c2)nc1N(C)C(C)C [Compound 204, (S,E)-3-((3-(2-(2-(4-(dimethylamino)-N-methylbut-2-enamido)propanamido)ethyl)phenyl)amino)-6-ethyl-5-(isopropyl(methyl)amino)pyrazine-2-carboxamide]
IC50 (K-562): > 500 nM | IC50 (FLT3-ITD): 0.101 to 0.2 nM

CCOc1nc(Nc2cccc(CCNC(=O)CN(C)C(=O)/C=C/CN3CCC3)c2)c(C(N)=O)nc1CC [Compound 602, (E)-3-((3-(2-(2-(4-(azetidin-1-yl)-N-methylbut-2-enamido)acetamido)ethyl)phenyl)amino)-5-ethoxy-6-ethylpyrazine-2-carboxamide]
IC50 (K-562): > 500 nM | IC50 (FLT3-ITD): 0.201 to 0.5 nM

CCc1nc(C(N)=O)c(Nc2cc(F)cc(CCNC(=O)CN(C)C(=O)/C=C/CN3CCC3)c2)nc1C1CC1 [Compound 516, (E)-3-((3-(2-(2-(4-(azetidin-1-yl)-N-methylbut-2-enamido)acetamido)ethyl)-5-fluorophenyl)amino)-5-cyclopropyl-6-ethylpyrazine-2-carboxamide]
IC50 (K-562): > 500 nM | IC50 (FLT3-ITD): 0.101 to 0.2 nM

CCc1nc(C(N)=O)c(Nc2cccc(CCNC(=O)CN(C)C(=O)/C=C/CN(C)C)c2)nc1N(C)CC [Compound 252, (E)-3-((3-(2-(2-(4-(dimethylamino)-N-methylbut-2-enamido)acetamido)ethyl)phenyl)amino)-6-ethyl-5-(ethyl (methyl)amino) pyrazine-2-carboxamide]
IC50 (K-562): > 500 nM | IC50 (FLT3-ITD): 0.101 to 0.2 nM

CCc1nc(C(N)=O)c(Nc2cccc(CCNC(=O)[C@H](C)N(C)C(=O)/C=C/CNC)c2)nc1N(C)C(C)C [Compound 307, (S,E)-6-ethyl-5-(isopropyl(methyl)amino)-3-((3-(2-(2-(N-methyl-4-(methylamino)but-2-enamido)propanamido)ethyl)phenyl)amino)pyrazine-2-carboxamide]
IC50 (FLT3-ITD): 0.201 to 0.5 nM

CCc1nc(C(N)=O)c(Nc2cccc(CCNC(=O)CN(C)C(=O)/C=C/CN3CCC3)c2)nc1N(C)CC [Compound 516A, (E)-3-((3-(2-(2-(4-(azetidin-1-yl)-N-methylbut-2-enamido)acetamido)ethyl)phenyl)amino)-6-ethyl-5-(ethyl(methyl)amino) pyrazine-2-carboxamide]
IC50 (K-562): > 500 nM | IC50 (FLT3-ITD): 0.101 to 0.2 nM

CCc1nc(C(N)=O)c(Nc2cccc([C@@H](C)CNC(=O)CN(C)C(=O)/C=C/CN3CCC3)c2)nc1C1CC1 [Compound 506, (R,E)-3-((3-(1-(2-(4-(azetidin-1-yl)-N-methylbut-2-enamido)acetamido)propan-2-yl)phenyl)amino)-5-cyclopropyl-6-ethylpyrazine-2-carboxamide]
IC50 (K-562): > 500 nM | IC50 (FLT3-ITD): 0.201 to 0.5 nM

Cc1nc(C(N)=O)c(Nc2cccc(CCNC(=O)CN(C)C(=O)/C=C/CN(C)C)c2)nc1N(C)C(C)C [Compound 250, (E)-3-((3-(2-(2-(4-(dimethylamino)-N-methylbut-2-enamido)acetamido)ethyl)phenyl)amino)-5-(isopropyl(methyl)amino)-6-methylpyrazine-2-carboxamide]
IC50 (K-562): > 500 nM | IC50 (FLT3-ITD): 0.201 to 0.5 nM

CCc1nc(C(N)=O)c(Nc2cccc(CCNC(=O)CN(C)C(=O)/C=C/CN3CCC3)c2)nc1OC(C)C [Compound 603, (E)-3-((3-(2-(2-(4-(azetidin-1-yl)-N-methylbut-2-enamido)acetamido)ethyl)phenyl)amino)-6-ethyl-5-isopropoxypyrazine-2-carboxamide]
IC50 (K-562): > 500 nM | IC50 (FLT3-ITD): 0.201 to 0.5 nM

CCc1nc(C(N)=O)c(Nc2ccc(N3CCC(N4CCN(C)CC4)CC3)c(OC)c2)nc1NC1CCOCC1 [Gilteritinib, gilteritinib, reference compound]
IC50 (K-562): 100 to 500 nM

Cc1nc(C(N)=O)c(Nc2cccc(CCNC(=O)[C@H](C)N(C)C(=O)/C=C/CN(C)C)c2)nc1N(C)C(C)C [Compound 232, (S, E)-3-((3-(2-(2-(4-(dimethylamino)-N-methylbut-2-enamido)propanamido)ethyl)phenyl)amino)-5-(isopropyl (methyl)amino)-6-methylpyrazine-2-carboxamide]
IC50 (K-562): > 500 nM | IC50 (FLT3-ITD): 0.501 to 1 nM

CCc1nc(C(N)=O)c(Nc2cccc(CCNC(=O)CN(C)C(=O)/C=C/CN(C)C)c2)nc1C1CC1 [Compound 219, (E)-5-cyclopropyl-3-((3-(2-(2-(4-(dimethylamino)-N-methylbut-2-enamido)acetamido)ethyl)phenyl)amino)-6-ethylpyrazine-2-carboxamide]
IC50 (K-562): > 500 nM

CCc1nc(C(N)=O)c(Nc2cccc([C@@H](C)CNC(=O)CN(C)C(=O)/C=C/CN(C)C)c2)nc1C1CC1 [Compound 504, (R,E)-5-cyclopropyl-3-((3-(1-(2-(4-(dimethylamino)-N-methylbut-2-enamido)acetamido)propan-2-yl)phenyl)amino)-6-ethylpyrazine-2-carboxamide]
IC50 (K-562): > 500 nM

— patent US20240262795A1, “PYRAZINE COMPOUNDS AS INHIBITORS OF FLT3” (Biomea Fusion, Inc., priority 2021, published 2024)
